Literature values, collected in patent US11154616B2, “Methods of treating locally advanced or metastatic breast cancers using PD-1 axis binding antagonists and taxanes” (Genentech, Inc., priority 2015, dated 2021).

Tested on: mTNBC
Conditions: monotherapy in mTNBC

MPDL3280A: humanized monoclonal anti-PD-L1 antibody that inhibits the binding of PD-L1 to PD-1
clinical response as a monotherapy: durable responses
